These are literature values, as cited in US20150276574A1, “CELL ANALYSIS METHOD” (SYSMEX CORPORATION, priority 2014, published 2015).

Read-outs that look alike come from different tables or passages of the source. Bounds are passed on as bounds.

Take `O=C(O)CCCC(=O)O` [glutaric acid]: the “Solubility in 100 g of water at 20° C.” value (100 g of water, 20° C.) is on record as 43 g.
On to aminobutanoic acid, for which the “Solubility in 100 g of water at 20° C.” value (100 g of water, 20° C.) is at least 5 g.
`CC(C)=CC(=O)O` [3-methylcrotonic acid]: the “Solubility in 100 g of water at 20° C.” value was at least 2 g.
For the compound `O=C(O)/C=C\C(=O)O` [maleic acid], the “Solubility in 100 g of water at 20° C.” value (100 g of water, 20° C.) is given as 44 g.
For the compound `NC(=O)NCCC[C@H](N)C(=O)O` [citrulline], the “Solubility in 100 g of water at 20° C.” value (100 g of water, 20° C.) is 20 g.
`CCC(O)C(=O)O` (centres unmarked) [2-hydroxybutyric acid]: the “Solubility in 100 g of water at 20° C.” value (100 g of water, 20° C.) is at least 5 g.
`CC1=CC(=O)OC1=O` [citraconic anhydride]: the “Solubility in 100 g of water at 20° C.” value (100 g of water, 20° C.) was at least 10 g.
As for `O=C(O)CC(O)C(=O)O` (centres unmarked) [malic acid], the “Solubility in 100 g of water at 20° C.” value (100 g of water, 20° C.) was 5 g.
